#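 How tested: cells in 96-well plates exposed to compound for 48 hours at five concentrations. At the GI50, growth is halved. The concentration for full growth arrest is given as TGI.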
# Key:
# Experiment in all cases: NCI tumour cell line growth inhibition, 48 h
# ACHN renal = test system: ACHN renal
# HT29 colon = test system: HT29 colon
# IGROV1 ovarian = test system: IGROV1 ovarian
# M14 melanoma = test system: M14 melanoma
# MOLT-4 leukemia = test system: MOLT-4 leukemia
# RXF 393 renal = test system: RXF 393 renal
# SW-620 colon = test system: SW-620 colon
# TK-10 renal = test system: TK-10 renal
# UO-31 renal = test system: UO-31 renal
# HOP-92 NSCLC = test system: HOP-92 NSCLC
Structure (SMILES),TGI (ACHN renal) [µM],TGI (HT29 colon) [µM],TGI (IGROV1 ovarian) [µM],TGI (M14 melanoma) [µM],TGI (MOLT-4 leukemia) [µM],TGI (RXF 393 renal) [µM],TGI (SW-620 colon) [µM],TGI (TK-10 renal) [µM],TGI (UO-31 renal) [µM],TGI (HOP-92 NSCLC) [µM],GI50 (ACHN renal) [µM],GI50 (HOP-92 NSCLC) [µM],GI50 (HT29 colon) [µM],GI50 (IGROV1 ovarian) [µM],GI50 (M14 melanoma) [µM],GI50 (RXF 393 renal) [µM],GI50 (SW-620 colon) [µM],GI50 (TK-10 renal) [µM],GI50 (MOLT-4 leukemia) [µM],GI50 (UO-31 renal) [µM]
COc1cc(C(C)O)c[n+](CCc2c[nH]c3ccccc23)c1 (stereo unspecified),> 100,> 100,> 100,> 100,> 100,> 100,> 100,> 100,> 100,–,–,–,–,–,–,–,–,–,–,–
Cc1ccn2c(c1)nc1nc3ccccc3nc12,> 100,> 100,> 100,> 100,–,> 100,> 100,> 100,> 100,> 100,–,–,–,–,–,–,–,–,–,–
NCCCCN(CCCN)/[N+]([O-])=N\O,> 100,> 100,> 100,> 100,> 100,> 100,> 100,–,> 100,> 100,–,–,–,–,–,–,–,–,–,–
C[C@@]12CC=C3c4nc(Nc5cccc(O)c5)sc4CC[C@]3(C)[C@H]1CC[C@]1(C)C(=O)CC[C@@H]21,5.45,6.43,6.04,> 100,–,2.35,4.82,6.44,–,5.32,2.27,1.93,1.96,2.23,2.97,0.666,2.13,2.18,–,–
O=C1CCN2C(=O)CCN12,> 100,> 100,–,> 100,> 100,–,> 100,> 100,> 100,> 100,–,–,–,–,–,–,–,–,–,–
O=C1C2C3C=C4c5ccccc5N(c5ccccc5)C4(C2C(=O)N1Cc1ccccc1)C1C(=O)N(Cc2ccccc2)C(=O)C31 (stereo unspecified),> 100,> 100,–,–,> 100,–,> 100,> 100,> 100,> 100,–,–,–,–,–,–,–,–,–,–
Clc1nc(Cl)c(Cl)c(-c2ccccc2)n1,33.5,–,31.1,3.72,3.99,26.6,5.62,32.9,34.7,–,–,–,–,–,–,–,–,–,–,–
COc1cc(/C=C/c2cc(/C=C/c3ccc(O)c(OC)c3)n(C(=O)Nc3ccc(F)c(Cl)c3)n2)ccc1O,7.49,4.26,3.59,1.59,1.4,0.828,–,3.56,1.82,5.89,0.141,1.03,1.31,0.47,0.114,0.249,–,0.58,0.282,0.248
Cc1cc(C(=O)Nc2ncc(Cc3cccc(C(F)(F)F)c3)s2)c2ccccc2n1,> 100,> 100,> 100,> 100,> 100,–,> 100,–,> 100,> 100,0.339,2.56,1.14,3.46,0.185,–,1.21,–,2.39,1.5
COc1cc2ncnc(Nc3ccc(C)c(O)c3)c2cc1OC,> 25,> 25,> 12,> 25,> 25,19.2,> 25,12,> 17.2,–,0.799,–,14.7,1.98,18.8,5.48,> 25,3.62,> 25,1.59
Cc1cc(S(=O)(=O)Nc2nnc(-c3ccccc3)c(-c3ccccc3)n2)c(SCC(N)=O)cc1Cl,> 100,> 100,> 100,> 100,49.2,–,> 100,> 100,> 100,–,> 100,–,> 100,> 100,56.5,–,41.5,> 100,24.4,> 100
CC(C)(C)c1cc(C(C)(C)C)cc(S(=O)(=O)Nc2cc3ccccc3cc2C(=O)NCCN)c1,3.18,3.95,–,3.42,5.77,3.18,3.95,3.26,2.98,3.24,1.7,1.73,1.93,–,1.71,1.79,1.93,1.78,2.32,1.55
COc1cc(C=C2C(=O)NC(=O)NC2=O)cc(OC)c1OC,> 100,> 100,–,> 100,> 100,> 100,> 100,> 100,> 100,> 100,–,–,–,–,–,–,–,–,–,–
O=C(Cc1ccccc1)NN1C(=O)C(Cl)C1c1cc(Br)ccc1O (stereo unspecified),> 100,> 100,> 100,19,8.07,> 100,> 100,> 100,46.8,–,–,–,–,–,–,–,–,–,–,–
Cc1cn(C2CC(O)C(CO)O2)c(=O)n2nnnc12 (stereo unspecified),–,> 100,> 100,> 100,> 100,–,> 100,> 100,> 100,> 100,–,–,–,–,–,–,–,–,–,–
O=C(N/N=C/c1ccc(Cl)cc1)c1ccc(C(F)(F)F)nc1Nc1cccc(C(F)(F)F)c1,8.77,11.7,10.5,10,5.3,–,10.4,16.8,5.42,2.71,2.73,0.347,1.44,2.4,2.54,–,1.45,2.85,0.731,1.66
COc1ccc(/C=C/c2ccnc3ccccc23)c(OC)c1,> 10,–,> 10,> 10,> 10,> 10,> 10,> 10,> 10,–,–,–,–,–,–,–,–,–,–,–
COc1ccc(C(=O)C(C(=O)CCC(=O)Nc2cccc(Cl)c2)c2ccc(OC)cc2)cc1 (stereo unspecified),> 100,> 100,> 100,> 100,> 100,–,> 100,> 100,> 100,> 100,–,–,–,–,–,–,–,–,–,–
Cc1cc(Cl)ccc1N=C1NC(=O)C(CC(=O)Nc2ccc([N+](=O)[O-])cc2[N+](=O)[O-])S1 (stereo unspecified),71.4,> 100,> 100,59.8,55.5,–,> 100,> 100,42.6,–,–,–,–,–,–,–,–,–,–,–

# From PubChem BioAssay (NCI)
